Laboratory results taken from the supplement of paper PMC11208160.

Assay: recombinant barcode read abundance after kanamycin selection (control-corrected) (log10(CPM+1)); higher = more efficient recombination; sequences stand for … in AGTGCAGAGAAAATCGGCCAGTTTTCTCTGCCTGCAGTCCGCATGCCGT…AGATTTATGCAGCGGACTGCCTTTCTCCCAAAGTGATAAACCGGACAGTATCATGGACCGGTTTTCCCGGTAATCCGTATTTGCAAGGTTGGTTTCACT; site = the 11-nt target
Description: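 Pooled E. coli target-specificity screen for the IS621 bridge recombinase. Each library plasmid pairs an 11-nt target (CT core) with a bridge RNA whose target-binding loop (9-nt LTG + 4-nt RTG) is reprogrammed; the rest of the 177-nt WT IS621 bridge RNA scaffold is fixed. The plasmid is co-electroporated with a WT donor plasmid; recombinase is induced with 0.1 mM IPTG and recombinants are selected on kanamycin. Recombinant barcodes are sequenced, converted to CPM, averaged over two biological replicates and corrected by the unselected control CPM. Molecule = full bridge RNA written as DNA: LTG = specificity nt 1-9, RTG = reverse complement of specificity nt 8-11, in the WT scaffold.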
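Also: IS621 recombinase and bridge RNA in Escherichia coli cells.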

Sequence	recombinant barcode read abundance (log10)
ACGTGGCCTTGGGTTCTAACCTGTTGCCA (site ACGTGGCCTTG)	0.0442
ACGTGGCCTTGGGTTCTAACCTGTTGCCA (site ACGTGGTCTTA)	0.275
ACGTGGCCTTGGGTTCTAACCTGTTGCTG (site ACGTGGCCTCA)	1.05
ACGTGGCCTTGGGTTCTAACCTGTTGCTG (site ACTTGGCCTCA)	0.618
ACGTGGTCTTGGGTTCTAACCTGTTGCTA (site ACGTGGCCTTG)	0.534
ACGTGGTCTTGGGTTCTAACCTGTTGCTA (site ACGTGGTCTTA)	0.582
ACTAACACTTGGGTTCTAACCTGTTGCCT (site ACTAACACTAG)	1.23
ACTAACACTTGGGTTCTAACCTGTTGCCT (site CCTAACACTAG)	0.0857
ACTAACACTTGGGTTCTAACCTGTTGCCT (site GCTAACACTAG)	0.0913
ACTAACACTTGGGTTCTAACCTGTTGCCT (site TCTAACACTAG)	0.546
ACTAACCCTTGGGTTCTAACCTGTTGCCT (site AATAACCCTAG)	0.0415
ACTAACCCTTGGGTTCTAACCTGTTGCCT (site ACTAACCCTAG)	1.47
ACTAACCCTTGGGTTCTAACCTGTTGCCT (site AGTAACCCTAG)	0.08
ACTAACCCTTGGGTTCTAACCTGTTGCCT (site ATTAACCCTAG)	0.074
ACTAAGCCTTGGGTTCTAACCTGTTGCGG (site ACTAAGCCTCC)	1.93
ACTAAGCCTTGGGTTCTAACCTGTTGCGG (site AGTAAGCCTCT)	0.151
ACTACCTCTTGGGTTCTAACCTGTTGCCT (site AATACCTCTAG)	0.0169
ACTACCTCTTGGGTTCTAACCTGTTGCCT (site ACTACCTCTAG)	1.35
ACTACCTCTTGGGTTCTAACCTGTTGCCT (site AGTACCTCTAG)	0.0737
ACTACCTCTTGGGTTCTAACCTGTTGCCT (site ATTACCTCTAG)	0.0805
ACTACTACTTGGGTTCTAACCTGTTGCCT (site AATACTACTAG)	0.227

Sequence	recombinant barcode read abundance (log10)
ACTACTACTTGGGTTCTAACCTGTTGCCT (site ACTACTACTAG)	0.172
ACTACTACTTGGGTTCTAACCTGTTGCCT (site AGTACTACTAG)	0.492
ACTACTACTTGGGTTCTAACCTGTTGCCT (site ATTACTACTAG)	0.111
ACTAGACCTTGGGTTCTAACCTGTTGCCT (site ACTAGACCTAG)	0.5
ACTAGACCTTGGGTTCTAACCTGTTGCCT (site ACTCGACCTAG)	0.134
ACTAGGACTTGGGTTCTAACCTGTTGCGT (site ACTAGGACTAC)	2.91
ACTAGGACTTGGGTTCTAACCTGTTGCGT (site ACTAGGACTCC)	1.22
ACTAGGACTTGGGTTCTAACCTGTTGCGT (site ACTAGGACTGC)	0.248
ACTAGGACTTGGGTTCTAACCTGTTGCGT (site ACTAGGACTTC)	0.26
ACTAGGCCTTGGGTTCTAACCTGTTGCGG (site ACTAGGCCTCC)	2.2
ACTAGGCCTTGGGTTCTAACCTGTTGCGG (site ACTATCCCTCC)	0.0234
ACTAGGGCTTGGGTTCTAACCTGTTGCGG (site AATAGGGCTCC)	0.729
ACTAGGGCTTGGGTTCTAACCTGTTGCGG (site ACTAGGGCTCC)	3.25
ACTAGTCCTTGGGTTCTAACCTGTTGCCA (site ACTACTCCTTC)	0.0602
ACTAGTCCTTGGGTTCTAACCTGTTGCCA (site ACTAGTCCTTG)	0.326
ACTAGTCCTTGGGTTCTAACCTGTTGCTT (site ACTAGTCCTAA)	0.294
ACTAGTCCTTGGGTTCTAACCTGTTGCTT (site ACTAGTCCTAC)	0.143
ACTAGTCCTTGGGTTCTAACCTGTTGCTT (site ACTAGTCCTAG)	0.189
ACTAGTCCTTGGGTTCTAACCTGTTGCTT (site ACTAGTCCTAT)	0.316
ACTATCCCTTGGGTTCTAACCTGTTGCGG (site ACTAGGCCTCC)	0.283
ACTATCCCTTGGGTTCTAACCTGTTGCGG (site ACTATCCCTCC)	1.16

Sequence	recombinant barcode read abundance (log10)
ACTCGCTCTTGGGTTCTAACCTGTTGCAC (site ACTCGCTCTGT)	1.5
ACTCGCTCTTGGGTTCTAACCTGTTGCAC (site GGGACTACTCG)	0.0345
ACTCTGGCTTGGGTTCTAACCTGTTGCCT (site ACACTGGCTAG)	0.0916
ACTCTGGCTTGGGTTCTAACCTGTTGCCT (site ACCCTGGCTAG)	0.256
ACTCTGGCTTGGGTTCTAACCTGTTGCCT (site ACGCTGGCTAG)	0.254
ACTCTGGCTTGGGTTCTAACCTGTTGCCT (site ACTCTGGCTAG)	0.372
ACTGAGTCTTGGGTTCTAACCTGTTGCAA (site ACTGAGTCTAT)	0.0772
ACTGAGTCTTGGGTTCTAACCTGTTGCAA (site ACTGAGTCTTT)	1.87
ACTGATTCTTGGGTTCTAACCTGTTGCCT (site ACTGATACTAG)	0.214
ACTGATTCTTGGGTTCTAACCTGTTGCCT (site ACTGATCCTAG)	0.0546
ACTGATTCTTGGGTTCTAACCTGTTGCCT (site ACTGATGCTAG)	0.0541
ACTGATTCTTGGGTTCTAACCTGTTGCCT (site ACTGATTCTAG)	1.34
ACTGCGGCTTGGGTTCTAACCTGTTGCCT (site AATTCGGCTAG)	0.136
ACTGCGGCTTGGGTTCTAACCTGTTGCCT (site ACTGCGGCTAG)	0.617
ACTGCGTCTTGGGTTCTAACCTGTTGCCT (site ACTCCGTCTAG)	0.119
ACTGCGTCTTGGGTTCTAACCTGTTGCCT (site ACTGCGTCTAG)	1.6
ACTGCTCCTTGGGTTCTAACCTGTTGCCT (site ACTGCTCCTAG)	0.881
ACTGCTCCTTGGGTTCTAACCTGTTGCCT (site CTCTGAGCTCT)	0.0903
ACTGGGCCTTGGGTTCTAACCTGTTGCGA (site ACTCGGCCTTC)	0.191
ACTGGGCCTTGGGTTCTAACCTGTTGCGA (site ACTGGGCCTTC)	2.67
ACTGTAACTTGGGTTCTAACCTGTTGCTT (site ACTATAACTAA)	0.102

Sequence	recombinant barcode read abundance (log10)
ACTGTAACTTGGGTTCTAACCTGTTGCTT (site ACTCTAACTAA)	0.0186
ACTGTAACTTGGGTTCTAACCTGTTGCTT (site ACTGTAACTAA)	1.06
ACTGTAACTTGGGTTCTAACCTGTTGCTT (site ACTTTAACTAA)	0.0634
ACTTCTGCTTGGGTTCTAACCTGTTGCCT (site ACTTCACCTAG)	0.0609
ACTTCTGCTTGGGTTCTAACCTGTTGCCT (site ACTTCTGCTAG)	0.528
ACTTGACCTTGGGTTCTAACCTGTTGCAG (site ACTTGACCTCT)	1.83
ACTTGACCTTGGGTTCTAACCTGTTGCAG (site ATTTGACCTCG)	0.0223
ACTTGTTCTTGGGTTCTAACCTGTTGCCT (site ACTTGTTCTAG)	0.567
ACTTGTTCTTGGGTTCTAACCTGTTGCCT (site CCTTGTTCTAG)	0.202
ACTTGTTCTTGGGTTCTAACCTGTTGCCT (site GCTTGTTCTAG)	0.157
ACTTGTTCTTGGGTTCTAACCTGTTGCCT (site TCTTGTTCTAG)	0.0997
ACTTTAGCTTGGGTTCTAACCTGTTGCTT (site ACTTGAACTAA)	0.438
ACTTTAGCTTGGGTTCTAACCTGTTGCTT (site ACTTTAGCTAA)	0.399
AGAAAAGCTTGGGTTCTAACCTGTTGCAA (site AGAAAAGCTTT)	1.06
AGAAAAGCTTGGGTTCTAACCTGTTGCAA (site CATGCTTCTAG)	0.295
AGAAAGGCTTGGGTTCTAACCTGTTGCGC (site AGAAAGGCTGC)	2.32
AGAAAGGCTTGGGTTCTAACCTGTTGCGC (site GTGGGCACTAG)	0.0408
AGAACGTCTTGGGTTCTAACCTGTTGCCT (site AGAACGTCTAG)	1.09
AGAACGTCTTGGGTTCTAACCTGTTGCCT (site AGAATGTCTAG)	0.0292
